Data taken from PubChem BioAssay AID248 (DTP/NCI, 2004).
Several values for one entry are separate records, joined by “and”; a condition that tells them apart may be missing. Equal entries are not always repeated. Toxic doses and inconclusive results are not listed.

Test system: L1210 leukemia ip in BDF1 mice, survival T/C
Assay: NCI In Vivo Anticancer Drug Screen. Data for tumor model L1210 Leukemia (intraperitoneal) in B6D2F1 (BDF1) mice
Conditions: endpoint: mean survival time, higher = longer survival
In short: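 Mice bearing the transplanted tumor received compound or vehicle. Survival of the treated group was divided by that of the vehicle-treated control group to give the ratio.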

[1] = dose: 100.0 mg/kg/injection, schedule: Q04DX003 (ip), vehicle: Klucel (hydroxypropylcellulose) (HPC)
[2] = dose: 200.0 mg/kg/injection, schedule: Q04DX003 (ip), vehicle: Klucel (hydroxypropylcellulose) (HPC)
[3] = dose: 100.0 mg/kg/injection, schedule: Q01DX001 (ip), vehicle: saline
[4] = dose: 200.0 mg/kg/injection, schedule: Q01DX001 (ip), vehicle: saline
[5] = dose: 50.0 mg/kg/injection, schedule: Q01DX009 (ip), vehicle: saline
[6] = dose: 400.0 mg/kg/injection, schedule: Q04DX003 (ip), vehicle: Klucel (hydroxypropylcellulose) (HPC)

Structure (SMILES): C=COP(OCCCC)OCCCC
- T/C (dose: 25.0 mg/kg/injection, schedule: Q04DX002 (ip), vehicle: saline): 94 % of control
- T/C (dose: 50.0 mg/kg/injection, schedule: Q04DX002 (ip), vehicle: saline): 91 % of control
- T/C (dose: 100.0 mg/kg/injection, schedule: Q04DX002 (ip), vehicle: saline): 93 % of control and 97 % of control
- T/C (dose: 200.0 mg/kg/injection, schedule: Q04DX002 (ip), vehicle: saline): 91 % of control
- T/C (dose: 400.0 mg/kg/injection, schedule: Q04DX002 (ip), vehicle: saline): 96 % of control

Structure (SMILES): C[C@@H]1CC[C@@]2(NC1)O[C@H]1C[C@H]3[C@@H]4CC=C5C[C@@H](O)CC[C@]5(C)[C@H]4CC[C@]3(C)[C@H]1[C@@H]2C
- T/C (dose: 5.0 mg/kg/injection, schedule: Q01DX Z (sc), vehicle: steriod suspending solution): 91 % of control
- T/C (dose: 10.0 mg/kg/injection, schedule: Q01DX Z (sc), vehicle: steriod suspending solution): 100 % of control
- T/C (dose: 20.0 mg/kg/injection, schedule: Q01DX Z (sc), vehicle: steriod suspending solution): 96 % of control
- T/C (dose: 40.0 mg/kg/injection, schedule: Q01DX Z (sc), vehicle: steriod suspending solution): 98 % of control
- T/C (dose: 50.0 mg/kg/injection, schedule: Q01DX009 (ip), vehicle: saline sonified): 95 % of control
- T/C (dose: 100.0 mg/kg/injection, schedule: Q01DX009 (ip), vehicle: saline sonified): 94 % of control
- T/C [1]: 94 % of control
- T/C (dose: 200.0 mg/kg/injection, schedule: Q01DX009 (ip), vehicle: saline sonified): 90 % of control
- T/C [2]: 99 % of control

Structure (SMILES): COCOc1ccc(-c2ccc(O)cc2)cc1
- T/C (dose: 100.0 mg/kg/injection, schedule: Q04DX003 (ip), vehicle: saline with Tween-80): 91 % of control
- T/C (dose: 200.0 mg/kg/injection, schedule: Q04DX003 (ip), vehicle: saline with Tween-80): 91 % of control
- T/C (dose: 400.0 mg/kg/injection, schedule: Q04DX003 (ip), vehicle: saline with Tween-80): 94 % of control

Structure (SMILES): CCOC(=O)C(C)(C(=O)OCC)c1cccc2ccccc12
- T/C (dose: 100.0 mg/kg/injection, schedule: Q01DX001 (ip), vehicle: other): 98 % of control
- T/C (dose: 100.0 mg/kg/injection, schedule: Q04DX003 (ip), vehicle: other): 93 % of control
- T/C (dose: 200.0 mg/kg/injection, schedule: Q01DX001 (ip), vehicle: other): 102 % of control
- T/C (dose: 200.0 mg/kg/injection, schedule: Q04DX003 (ip), vehicle: other): 100 % of control
- T/C (dose: 400.0 mg/kg/injection, schedule: Q01DX001 (ip), vehicle: other): 96 % of control
- T/C (dose: 400.0 mg/kg/injection, schedule: Q04DX003 (ip), vehicle: other): 94 % of control

Structure (SMILES): CC1COP(Oc2ccccc2)O1 (configuration not stated)
- T/C [3]: 113 % of control
- T/C [4]: 115 % of control
- T/C (dose: 400.0 mg/kg/injection, schedule: Q01DX001 (ip), vehicle: saline): 96 % of control

Structure (SMILES): C1CN(P2(N3CC3)=NP(N3CC3)(N3CC3)=NP(N3CC3)(N3CC3)=N2)CCO1 (configuration not stated)
- T/C (dose: 6.25 mg/kg/injection, schedule: Q01DX009 (ip), vehicle: saline): 116 % of control and 119 % of control
- T/C (dose: 12.5 mg/kg/injection, schedule: Q01DX009 (ip), vehicle: saline): 120 % of control
- T/C (dose: 25.0 mg/kg/injection, schedule: Q01DX001 (ip), vehicle: saline): 114 % of control and 119 % of control
- T/C (dose: 25.0 mg/kg/injection, schedule: Q01DX009 (ip), vehicle: saline): 156 % of control and 164 % of control
- T/C [5]: 99 % of control and 104 % of control and 87 % of control
- T/C [3]: 181 % of control and 185 % of control
- T/C [4]: 89 % of control

Structure (SMILES): CN(Cc1ccccc1)C(=O)c1cccc(C(=O)N(C)Cc2ccccc2)c1
- T/C (dose: 100.0 mg/kg/injection, schedule: Q01DX009 (ip), vehicle: other): 97 % of control
- T/C (dose: 200.0 mg/kg/injection, schedule: Q01DX009 (ip), vehicle: other): 97 % of control
- T/C (dose: 400.0 mg/kg/injection, schedule: Q01DX009 (ip), vehicle: other): 94 % of control

Structure (SMILES): CCOC(=O)NCC(CCN1CCCCC1)(CCN1CCCCC1)c1cccc2ccccc12
- T/C [1]: 107 % of control

Structure (SMILES): CCOc1ccc(C(=O)C(C)CN2CCN(C)CC2)cc1 (configuration not stated)
- T/C [3]: 98 % of control

Structure (SMILES): CCCCNC(=O)NC(=O)C(C)(C)Oc1ccc(Cl)cc1
- T/C [5]: 103 % of control
- T/C (dose: 100.0 mg/kg/injection, schedule: Q01DX009 (ip), vehicle: saline): 103 % of control
- T/C (dose: 200.0 mg/kg/injection, schedule: Q01DX009 (ip), vehicle: saline): 95 % of control

Structure (SMILES): CCCCC(C(=O)O)c1ccccc1 (configuration not stated)
- T/C (dose: 100.0 mg/kg/injection, schedule: Q04DX003 (ip), vehicle: saline sonified): 100 % of control
- T/C (dose: 200.0 mg/kg/injection, schedule: Q04DX003 (ip), vehicle: saline sonified): 97 % of control
- T/C (dose: 400.0 mg/kg/injection, schedule: Q04DX003 (ip), vehicle: saline sonified): 100 % of control

Structure (SMILES): C/C(=C\C(=O)Nc1ncn[nH]1)Nc1ncn[nH]1
- T/C (dose: 100.0 mg/kg/injection, schedule: Q01DX009 (ip), vehicle: Klucel (hydroxypropylcellulose) (HPC)): 100 % of control
- T/C [1]: 95 % of control
- T/C (dose: 200.0 mg/kg/injection, schedule: Q01DX009 (ip), vehicle: Klucel (hydroxypropylcellulose) (HPC)): 92 % of control
- T/C [2]: 106 % of control
- T/C (dose: 400.0 mg/kg/injection, schedule: Q01DX009 (ip), vehicle: Klucel (hydroxypropylcellulose) (HPC)): 102 % of control
- T/C [6]: 93 % of control

Structure (SMILES): Oc1ccccc1/C=N/Nc1ccc2ccccc2n1
- T/C (dose: 75.0 mg/kg/injection, schedule: Q01DX001 (ip), vehicle: saline with Tween-80): 93 % of control
- T/C (dose: 150.0 mg/kg/injection, schedule: Q01DX001 (ip), vehicle: saline with Tween-80): 90 % of control
- T/C (dose: 300.0 mg/kg/injection, schedule: Q01DX001 (ip), vehicle: saline with Tween-80): 93 % of control

Structure (SMILES): NC(N)=N/N=C\c1ccc(OCc2ccccc2)cc1
- T/C (dose: 15.0 mg/kg/injection, schedule: Q01DX Z (ip), vehicle: saline): 96 % of control
- T/C (dose: 15.0 mg/kg/injection, schedule: Q01DX Z (oral), vehicle: saline): 91 % of control
- T/C (dose: 30.0 mg/kg/injection, schedule: Q01DX Z (ip), vehicle: saline): 102 % of control
- T/C (dose: 30.0 mg/kg/injection, schedule: Q01DX Z (oral), vehicle: saline): 94 % of control
- T/C (dose: 60.0 mg/kg/injection, schedule: Q01DX Z (oral), vehicle: saline): 90 % of control
- T/C (dose: 120.0 mg/kg/injection, schedule: Q01DX010 (oral), vehicle: saline): 102 % of control
- T/C (dose: 120.0 mg/kg/injection, schedule: Q01DX Z (oral), vehicle: saline): 89 % of control
- T/C (dose: 240.0 mg/kg/injection, schedule: Q01DX010 (oral), vehicle: saline): 102 % of control
- T/C (dose: 400.0 mg/kg/injection, schedule: Q01DX010 (oral), vehicle: saline): 91 % of control

Structure (SMILES): O=C(NNc1ccc([N+](=O)[O-])cc1)c1ccccc1
- T/C [1]: 94 % of control
- T/C [2]: 94 % of control
- T/C [6]: 100 % of control

Structure (SMILES): CC(=O)Nc1nc(C)c(CCCOc2ccc([N+](=O)[O-])cc2)c(Cl)n1
- T/C (dose: 100.0 mg/kg/injection, schedule: Q01DX001 (ip), vehicle: Klucel (hydroxypropylcellulose) (HPC)): 100 % of control
- T/C (dose: 200.0 mg/kg/injection, schedule: Q01DX001 (ip), vehicle: Klucel (hydroxypropylcellulose) (HPC)): 97 % of control
- T/C (dose: 400.0 mg/kg/injection, schedule: Q01DX001 (ip), vehicle: Klucel (hydroxypropylcellulose) (HPC)): 97 % of control

Structure (SMILES): CCNC(=S)S.[Zn+2]
- T/C (dose: 1.0 mg/kg/injection, schedule: Q01DX015 (ip), vehicle: saline): 102 % of control
- T/C (dose: 2.0 mg/kg/injection, schedule: Q01DX015 (ip), vehicle: saline): 100 % of control
- T/C (dose: 4.0 mg/kg/injection, schedule: Q01DX015 (ip), vehicle: saline): 102 % of control
- T/C (dose: 8.0 mg/kg/injection, schedule: Q01DX015 (ip), vehicle: saline): 108 % of control
- T/C (dose: 10.0 mg/kg/injection, schedule: Q01DX001 (ip), vehicle: carboxymethylcellulose (CMC)): 95 % of control
- T/C (dose: 20.0 mg/kg/injection, schedule: Q01DX001 (ip), vehicle: carboxymethylcellulose (CMC)): 97 % of control
- T/C (dose: 40.0 mg/kg/injection, schedule: Q01DX001 (ip), vehicle: carboxymethylcellulose (CMC)): 95 % of control
- T/C (dose: 80.0 mg/kg/injection, schedule: Q01DX001 (ip), vehicle: carboxymethylcellulose (CMC)): 97 % of control

Structure (SMILES): CN(C)CCCN1c2ccccc2Sc2cc(C=[N+](C)C)ccc21
- T/C (dose: 100.0 mg/kg/injection, schedule: Q04DX003 (sc), vehicle: olive oil, sesame oil, peanut oil): 103 % of control
- T/C (dose: 200.0 mg/kg/injection, schedule: Q04DX003 (sc), vehicle: olive oil, sesame oil, peanut oil): 98 % of control
- T/C (dose: 400.0 mg/kg/injection, schedule: Q04DX003 (sc), vehicle: olive oil, sesame oil, peanut oil): 108 % of control

Structure (SMILES): COc1ccc(F)cc1CC(=O)O
- T/C (dose: 100.0 mg/kg/injection, schedule: Q04DX002 (ip), vehicle: Klucel (hydroxypropylcellulose) (HPC)): 102 % of control and 105 % of control
- T/C (dose: 200.0 mg/kg/injection, schedule: Q04DX002 (ip), vehicle: Klucel (hydroxypropylcellulose) (HPC)): 98 % of control and 105 % of control
- T/C (dose: 400.0 mg/kg/injection, schedule: Q04DX002 (ip), vehicle: Klucel (hydroxypropylcellulose) (HPC)): 91 % of control and 96 % of control
